The assay addresses HSD17B13 (Homo sapiens (Human), UniProt Q7Z5P4). Description: HSD17B13 enzymatic inhibition assay (150 nM or 50 nM HSD17B13). The settings on record: 50 nM HSD17B13; read-out: Inhibition of 50 nM of HSD17B13 IC50. Format: biochemical.

Some results are limits rather than exact numbers.

HSD17B13, sequence (Q7Z5P4 other isoform, or with tags, fused parts or gaps): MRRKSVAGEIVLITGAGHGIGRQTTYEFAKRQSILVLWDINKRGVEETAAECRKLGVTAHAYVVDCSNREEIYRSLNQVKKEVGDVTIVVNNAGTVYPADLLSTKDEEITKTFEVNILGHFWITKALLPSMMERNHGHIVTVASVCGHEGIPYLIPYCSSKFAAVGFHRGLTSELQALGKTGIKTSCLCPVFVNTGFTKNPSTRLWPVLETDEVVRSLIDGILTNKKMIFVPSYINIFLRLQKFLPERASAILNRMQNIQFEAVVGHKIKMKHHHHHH

Take `CSc1ccccc1C(NC(=O)c1ccc(C(F)(F)F)[nH]c1=O)c1ccc(C)cc1` (stereo not shown) [Compound 246, N-((2-(methylthio)phenyl)(p-tolyl)methyl)-2-oxo-6-(trifluoromethyl)-1,2-dihydropyridine-3-carboxamide]: the IC50 – broadly, the concentration needed to halve the response being measured – stood at 300 nM.

With `CSc1c(C)cccc1C(NC(=O)c1ccc(C(F)(F)F)[nH]c1=O)c1ccccc1` (stereo not shown) [Compound 247, N-((3-methyl-2-(methylthio)phenyl)(phenyl)methyl)-2-oxo-6-(trifluoromethyl)-1,2-dihydropyridine-3-carboxamide], the IC50 was determined as 930 nM. With `Cc1ccc2c(c1)C(NC(=O)c1ccc(C(F)(F)F)[nH]c1=O)c1ccccc1S2` (stereo not shown) [Compound 248, N-(2-methyl-9H-thioxanthen-9-yl)-2-oxo-6-(trifluoromethyl)-1,2-dihydropyridine-3-carboxamide] the figure was 300 nM; with `O=C(NC1c2ccccc2Sc2ccc(Cl)cc21)c1ccc(C(F)(F)F)[nH]c1=O` (stereo not shown) [Compound 249, N-(2-chloro-9H-thioxanthen-9-yl)-2-oxo-6-(trifluoromethyl)-1,2-dihydropyridine-3-carboxamide], 390 nM. As for `O=C(NC1c2ccc(Cl)cc2Sc2cc(Cl)ccc21)c1ccc(C(F)(F)F)[nH]c1=O` [Compound 250, N-(3,6-dichloro-9H-thioxanthen-9-yl)-2-oxo-6-(trifluoromethyl)-1,2-dihydropyridine-3-carboxamide], the IC50 was found to be 60 nM. Take `O=C(NC1c2ccc(Cl)cc2Sc2cccc(Cl)c21)c1ccc(C(F)(F)F)[nH]c1=O` (stereo not shown) [Compound 251, N-(1,6-dichloro-9H-thioxanthen-9-yl)-2-oxo-6-(trifluoromethyl)-1,2-dihydropyridine-3-carboxamide]: the IC50 stood at 650 nM. As to `Cc1ccc2c(c1)Sc1cccc(C)c1C2NC(=O)c1ccc(C(F)(F)F)[nH]c1=O` (stereo not shown) [Compound 253, N-(1,6-dimethyl-9H-thioxanthen-9-yl)-2-oxo-6-(trifluoromethyl)-1,2-dihydropyridine-3-carboxamide], the concentration for half-maximal inhibition (IC50) amounted to 4270 nM. Consider `O=C(NC1c2ccc(Cl)cc2Oc2cccc(Cl)c21)c1ccc[nH]c1=O` (stereo not shown) [Compound 254, N-(1,6-dichloro-9H-xanthen-9-yl)-2-oxo-1,2-dihydropyridine-3-carboxamide], for which the half-maximal inhibitory concentration (IC50) was above 10000 nM.

Regarding `O=C(NC1c2ccc(Cl)cc2Oc2cc(Cl)ccc21)c1ccc[nH]c1=O` [Compound 255, N-(3,6-dichloro-9H-xanthen-9-yl)-2-oxo-1,2-dihydropyridine-3-carboxamide], the half-maximal inhibitory concentration (IC50) was above 10000 nM.

Take `COc1cc(C)cc2c1CCC2NC(=O)c1ccc(C(F)(F)F)[nH]c1=O` (stereo not shown) [Compound 256, N-(4-methoxy-6-methyl-2,3-dihydro-1H-inden-1-yl)-2-oxo-6-(trifluoromethyl)-1,2-dihydropyridine-3-carboxamide]: the IC50 was above 10000 nM.

With `COc1c(C)ccc2c1CCC2NC(=O)c1ccc(C(F)(F)F)[nH]c1=O` (stereo not shown) [Compound 257, N-(4-methoxy-5-methyl-2,3-dihydro-1H-inden-1-yl)-2-oxo-6-(trifluoromethyl)-1,2-dihydropyridine-3-carboxamide], the IC50 stood at 7130 nM. With `Cc1ccc2c(c1)Sc1cc(C)ccc1C2NC(=O)c1cc(OC2CCOCC2)c(C(F)(F)F)[nH]c1=O` [Compound 258, N-(3,6-dimethyl-9H-thioxanthen-9-yl)-2-oxo-5-((tetrahydro-2H-pyran-4-yl)oxy)-6-(trifluoromethyl)-1,2-dihydropyridine-3-carboxamide], the IC50 came out at 10 nM.

For `COc1ccc2c(c1)Oc1cc(OC)ccc1C2NC(=O)c1cc(OC2CCOCC2)c(C(F)(F)F)[nH]c1=O` [Compound 259, N-(3,6-dimethoxy-9H-xanthen-9-yl)-2-oxo-5-((tetrahydro-2H-pyran-4-yl)oxy)-6-(trifluoromethyl)-1,2-dihydropyridine-3-carboxamide], the IC50 turned out to be 70 nM. For the compound `O=C(NC1CCCc2c(O)cccc21)c1ccc(SCc2cccc(C(F)(F)F)c2)[nH]c1=O` (stereo not shown) [Compound 261, N-(5-hydroxy-1,2,3,4-tetrahydronaphthalen-1-yl)-2-oxo-6-((3-(trifluoromethyl)benzyl)thio)-1,2-dihydropyridine-3-carboxamide], the IC50 is 6870 nM.

Regarding `O=C(N[C@@H]1C[C@H](CCO)Cc2ccccc21)c1ccc(C(F)(F)F)[nH]c1=O` [Compound 262, N-((1R,3R)-3-(2-hydroxyethyl)-1,2,3,4-tetrahydronaphthalen-1-yl)-2-oxo-6-(trifluoromethyl)-1,2-dihydropyridine-3-carboxamide], the IC50 came out at 980 nM. In the case of `O=C(N[C@@H]1C[C@@H](CCO)Cc2ccccc21)c1ccc(C(F)(F)F)[nH]c1=O` [Compound 263, N-((1R,3S)-3-(2-hydroxyethyl)-1,2,3,4-tetrahydronaphthalen-1-yl)-2-oxo-6-(trifluoromethyl)-1,2-dihydropyridine-3-carboxamide], the half-inhibitory concentration (IC50) is 8460 nM.

With `O=C(NC1CC(CO)Cc2ccccc21)c1ccc(C(F)(F)F)[nH]c1=O` (stereo not drawn) [Compound 264, N-(3-(hydroxymethyl)-1,2,3,4-tetrahydronaphthalen-l-yl)-2-oxo-6-(trifluoromethyl)-1,2-dihydropyridine-3-carboxamide], the half-maximal inhibitory concentration (IC50) turned out to be 9780 nM.

As for `CCC[C@H]1C[C@@H](NC(=O)c2cc(-c3ccccc3)c(C(F)(F)F)[nH]c2=O)c2cc(C)ccc2N1` [Compound 265, N-((2S,4R)-6-methyl-2-propyl-1,2,3,4-tetrahydroquinolin-4-yl)-2-oxo-5-phenyl-6-(trifluoromethyl)-1,2-dihydropyridine-3-carboxamide], the half-maximal inhibitory concentration (IC50) is 80 nM. Consider `Cc1ccc2c(c1N)CCC2NC(=O)c1ccc(C(F)(F)F)[nH]c1=O` (stereo not shown) [Compound 266, N-(4-amino-5-methyl-2,3-dihydro-1H-inden-1-yl)-2-oxo-6-(trifluoromethyl)-1,2-dihydropyridine-3-carboxamide], for which the IC50 stood at 640 nM. For `C=CCc1cc(NC(=O)c2ccc(C(F)(F)F)[nH]c2=O)cc(CC=C)n1` [Compound 267, N-(2,6-diallylpyridin-4-yl)-2-oxo-6-(trifluoromethyl)-1,2-dihydropyridine-3-carboxamide], the 50% inhibitory concentration (IC50) was 9440 nM.

With `CCCc1cc(NC(=O)c2ccc(C(F)(F)F)[nH]c2=O)cc(CCC)n1` [Compound 268, N-(2,6-dipropylpyridin-4-yl)-2-oxo-6-(trifluoromethyl)-1,2-dihydropyridine-3-carboxamide], the half-maximal inhibitory concentration (IC50) was above 10000 nM. As to `C=CCc1cc(NC(=O)c2ccc(C(F)(F)F)[nH]c2=O)cc(/C=C/C)n1` [Compound 269, (E)-N-(2-allyl-6-(prop-1-en-1-yl)pyridin-4-yl)-2-oxo-6-(trifluoromethyl)-1,2-dihydropyridine-3-carboxamide], the IC50 was 5010 nM.

For the compound `C=CCc1cc(CC=C)cc(NC(=O)c2ccc(C(F)(F)F)[nH]c2=O)c1` [Compound 270, N-(3,5-diallylphenyl)-2-oxo-6-(trifluoromethyl)-1,2-dihydropyridine-3-carboxamide], the IC50 amounted to 1390 nM. For the compound `Cc1ccc2c(c1)Sc1ccccc1C2NC(=O)c1ccc(C(F)F)[nH]c1=O` (stereo not shown) [Compound 275, 6-(difluoromethyl)-N-(3-methyl-9H-thioxanthen-9-yl)-2-oxo-1,2-dihydropyridine-3-carboxamide], the IC50 amounted to 100 nM. For `Cc1ccc2c(c1)C(NC(=O)c1ccc(C(F)F)[nH]c1=O)c1ccccc1O2` (stereo not shown) [Compound 276, 6-(difluoromethyl)-N-(2-methyl-9H-xanthen-9-yl)-2-oxo-1,2-dihydropyridine-3-carboxamide], the concentration for half-maximal inhibition (IC50) stood at 2620 nM. With `O=C(NC1c2ccccc2Sc2ccccc21)c1ccc(C(F)F)[nH]c1=O` [Compound 277, 6-(difluoromethyl)-2-oxo-N-(9H-thioxanthen-9-yl)-1,2-dihydropyridine-3-carboxamide] the figure was 2710 nM. Consider `O=C(NC1c2ccccc2Oc2ccccc21)c1ccc(C(F)F)[nH]c1=O` [Compound 278, 6-(difluoromethyl)-2-oxo-N-(9H-xanthen-9-yl)-1,2-dihydropyridine-3-carboxamide], for which the half-inhibitory concentration (IC50) amounted to 2000 nM. Take `Cc1ccc2c(c1)Oc1ccccc1C2NC(=O)c1ccc(C(F)F)[nH]c1=O` (stereo not shown) [Compound 279, 6-(difluoromethyl)-N-(3-methyl-9H-xanthen-9-yl)-2-oxo-1,2-dihydropyridine-3-carboxamide]: the 50% inhibitory concentration (IC50) stood at 180 nM. On to `Cc1ccc2c(c1)Oc1cc(C)ccc1C2NC(=O)c1ccc(C(F)F)[nH]c1=O` [Compound 280, 6-(difluoromethyl)-N-(3,6-dimethyl-9H-xanthen-9-yl)-2-oxo-1,2-dihydropyridine-3-carboxamide], for which the IC50 is 110 nM. Take `Cc1ccc2c(c1)C(NC(=O)c1ccc(C(F)F)[nH]c1=O)c1ccccc1S2` (stereo not shown) [Compound 281, 6-(difluoromethyl)-N-(2-methyl-9H-thioxanthen-9-yl)-2-oxo-1,2-dihydropyridine-3-carboxamide]: the IC50 amounted to 1880 nM. For `COc1ccc(-c2nc(SCc3cccc(C(F)(F)F)c3)[nH]c(=O)c2C#N)cc1` [Compound 283, 4-(4-methoxyphenyl)-6-oxo-2-((3-(trifluoromethyl)benzyl)thio)-1,6-dihydropyrimidine-5-carbonitrile], the IC50 came to 4760 nM.

In the case of `CCCC1Cc2cc(C)ccc2C1NC(=O)c1ccc(C(F)(F)F)[nH]c1=O` (stereo not shown) [Compound 287, N-(5-methyl-2-propyl-2,3-dihydro-1H-inden-1-yl)-2-oxo-6-(trifluoromethyl)-1,2-dihydropyridine-3-carboxamide], the concentration for half-maximal inhibition (IC50) came to 60 nM.

As for `Cc1ccc2c(c1)C(NC(=O)c1ccc(C(F)(F)F)[nH]c1=O)C(C)C2` (stereo not shown) [Compound 288, N-(2,6-dimethyl-2,3-dihydro-1H-inden-1-yl)-2-oxo-6-(trifluoromethyl)-1,2-dihydropyridine-3-carboxamide], the IC50 was 190 nM.

For the compound `CCC1Cc2ccc(C)cc2C1NC(=O)c1ccc(C(F)(F)F)[nH]c1=O` (stereo not shown) [Compound 290, N-(2-ethyl-6-methyl-2,3-dihydro-1H-inden-1-yl)-2-oxo-6-(trifluoromethyl)-1,2-dihydropyridine-3-carboxamide], the IC50 was found to be 80 nM.

Values taken from patent publication US11957687B2 (REGENERON PHARMACEUTICALS, INC., priority 2019, dated 2024).
